The text below walks through data of paper PMC6053381, “Novel 2-phenyloxypyrimidine derivative induces apoptosis and autophagy via inhibiting PI3K pathway and activating MAPK/ERK signaling in hepatocellular carcinoma cells” (Scientific Reports, 2018).

The pIC50 is the IC50 on a negative log10 scale, so that one unit is a factor of ten.

Type in all cases: cell-based
Experiment [1] deals with Bel7404 cells. Briefly: Colony formation assay. The settings on record: 0–20 μM, 24 h treatment, two weeks culture. The method, then:
(§1) Cells (300/well) were seeded in 24-well plates and incubated overnight in a humidified atmosphere of 5% CO2 at 37 °C. Incremental concentrations of E5 (0–20 μM) were then added, and the medium was replaced with fresh culture medium containing 10% FBS after 24 h. After two weeks of culture, colonies were fixed with methanol, stained with 1% crystal violet and colonies containing more than 50 cells were counted.

In experiment [2] the test system is HepG2 cells. Briefly: Colony formation assay. As to conditions: 0–20 μM, 24 h treatment, two weeks culture. The procedure:
as §1

The test system of experiment [3] is Bel7404 cells. Briefly: Apoptosis by Annexin V/PI flow cytometry. The settings on record: 24 h, Annexin V/PI double staining. The procedure: (§2) We next explored the apoptosis-inducing ability of E5 in HCC cells. Bel7404 and HepG2 cells were treated with E5 for 24 h and stained with the fluorescent DNA-binding dye, Hoechst 33258. The cells were brightly stained in a dose-dependent manner, showing a typical morphological sign of apoptosis (Fig. 5A). […] Furthermore, E5 induced a specific cleavage of PARP and a decrease of pro-form of caspase-3, caspase-7 and caspase-9 (Fig. 5C). […] In addition, the pan-caspase inhibitor Z-VAD-FMK partially rescued the viability of HCC cells reduced by E5, implying that E5 might also induce non-apoptotic form of cell death (Fig. 5D).
(§3) Cells were incubated with E5 for 24 h, after which cells were washed, stained and subjected to flow cytometry analysis. The cell cycle was analyzed by staining with propidium iodide (PI), and the extent of cell death/apoptosis was evaluated by double staining with annexin V-FITC and PI. The fluorescence was measured with a FACScan flow cytometer (Becton Dickinson, USA).
(A flow cytometer gives signals particle by particle.)

The subject of experiment [4] is HepG2 cells. Kind of experiment: Apoptosis by Annexin V/PI flow cytometry. As to conditions: 24 h, Annexin V/PI double staining. The procedure:
as §2, §3

A further experiment deals with SNU368. Briefly: CellTiter-Glo luminescent cell viability assay. The settings on record: 120 h incubation, read-out: Anti-proliferative activity IC50 SNU368. In a few lines:
(§4)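 Viability of HCC lines under 120 h compound treatment, measured with CellTiter-Glo luminescence versus untreated wells. Seeding density was 4000 cells per well with overnight attachment prior to adding compounds.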
A general note: Cellular ATP, detected with luciferase, serves as a proxy for viable cell number.

A further experiment has as its system SMMC-7721. Kind of experiment: CellTiter-Glo luminescent cell viability assay. The settings on record: Homo sapiens, SMMC-7721, 120 h incubation, read-out: Anti-proliferative activity IC50 SMMC-7721. The method, boiled down:
as §4

A further experiment deals with Hep3B. Kind of experiment: CellTiter-Glo luminescent cell viability assay. The settings on record: Homo sapiens, Hep3B, 120 h incubation, read-out: Anti-proliferative activity IC50 Hep3B. In a few lines: as §4
A further experiment has as its system QGY-7703. Kind of experiment: CellTiter-Glo luminescent cell viability assay. The settings on record: Homo sapiens, QGY-7703, 120 h incubation, read-out: Anti-proliferative activity IC50 QGY-7703. The method, boiled down: as §4
Another experiment has as its system MHCC97-L. Briefly: CellTiter-Glo luminescent cell viability assay. As to conditions: MHCC97L, 120 h incubation, read-out: Anti-proliferative activity IC50 MHCC97-L. The method, boiled down:
as §4

A further experiment concerns BEL7404. Briefly: CellTiter-Glo luminescent cell viability assay. The settings on record: Homo sapiens, BEL-7404, 120 h incubation, read-out: Anti-proliferative activity IC50 BEL7404. In a few lines:
as §4

Experiment [5] has as its system Bel7404 cells. Kind of experiment: Autophagy: LC3-I to LC3-II conversion, Western blot. From the text: (§5) To investigate whether E5 triggers autophagic cell death in HCC cells, several characteristic events of autophagy were examined using different techniques. First, E5 stimulated LC3 puncta formation in HCC cells transfected with adenovirus expressing GFP-LC3 fusion protein as detected by fluorescence microscopy (Fig. 6A). […] Third, the effects of E5 on autophagy flux was examined by co-treatment of E5 with chloroquine (CQ), an inhibitor that prevents the formation of autolysosomes by inhibiting autophagosome-lysosome fusion and […] degradation. […] Fourth, E5 increased the expression of Atg5, which is essential for the elongation of autophagosomes (Fig. 6B), and the cell viability by E5 treatment was increased in HCC cells by knockdown of Atg5 (Fig. 6E). Finally, treatment with 3-methyladenine (3-MA), an autophagy inhibitor, partially reversed E5-induced cell death in HCC cells (Fig. 6F).
(§6) After treatment with E5 for 24 h, cells were lysed in RIPA cell lysis buffer. Equal amount of protein (30–40 μg) was separated on a 12% or 15% SDS-PAGE and transferred electrophoretically onto a 0.45 μm PVDF membrane. Then, the membrane was blocked for 2 h at room temperature with 5% non-fat dried milk in TBS buffer and incubated with appropriate antibodies at 1:1000 (overnight, 4 °C). […]

The test system of experiment [6] is HepG2 cells. The experiment is described as above.
Description: as §5, §6

pIC50: −log10 of the molar value.

On to `Cc1ccc(NC(=O)c2ccc(CN3CCN(C)CC3)cc2)cc1Oc1nccc(-c2cc3ccccc3o2)n1` [E5, N-(3-((4-(benzofuran-2-yl)pyrimidin-2-yl)oxy)-4-methylphenyl)-4-((4-methylpiperazin-1-yl)methyl)benzamide], for which the Effect on clonogenicity result in the experiment with Bel7404 cells [1] and in the experiment on HepG2 cells [2] was “significantly inhibited the clonogenicity” throughout. Further, the Apoptosis induction result in the experiment on Bel7404 cells [3] and in the experiment with HepG2 cells [4] was “induced apoptosis in a dose-dependent manner” throughout. The pIC50 was 5.05 in the experiment with SNU368; 6.00 in the experiment with SMMC-7721; 5.59 with Hep3B; 4.82 in the experiment on QGY-7703; 5.00 in the experiment with MHCC97-L; 6.10 in the experiment on BEL7404. Besides, the “Conversion of LC3-I to LC3-II” value in the experiment with Bel7404 cells [5] was “induced the conversion of LC3-I to LC3-II in a dose- and time-dependent manner”; with HepG2 cells [6], “induced the conversion of LC3-I to LC3-II in a dose- and time-dependent manner”.
